ChEMBL document CHEMBL4392851, “Synthesis and structure-activity relationships for new 6-fluoroquinoline derivatives with antiplasmodial activity” (Bioorg Med Chem, 2019)
pIC50: −log10 of the molar value.

Columns and labels:
Plasmodium falciparum [1] = experiment: Antiplasmodial activity against chloroquine-sensitive Plasmodium falciparum NF54 erythrocytic stages incubated for 48 hrs by [3H]-hypoxanthine incorporation assay; format: functional, organism-based
[2] = Selectivity index, ratio of IC50 for rat L6 cells to IC50 for chloroquine-sensitive Plasmodium falciparum NF54 erythrocytic stages; format: toxicity; conditions: read-out: Ratio IC50
L6 = experiment: Cytotoxicity in rat L6 cells assessed as reduction in cell viability incubated for 72 hrs by alamar blue assay; format: cell-based; conditions: L6, 72 h
Plasmodium falciparum [3] = experiment: Antiplasmodial activity against chloroquine and pyrimethamine resistant Plasmodium falciparum K1 erythrocytic stages incubated for 48 hrs by [3H]-hypoxanthine incorporation assay; format: functional, organism-based
[4] = Selectivity index, ratio of IC50 for rat L6 cells to IC50 for chloroquine and pyrimethamine resistant Plasmodium falciparum K1; format: toxicity; conditions: read-out: Ratio IC50
[5] = Effective permeability by PAMPA; format: ADME; conditions: read-out: Peff
Plasmodium berghei [6] = experiment: Antiplasmodial activity against GFP-transfected Plasmodium berghei ANKA infected in NMRI mouse assessed as reduction in parasitaemia at 50 mg/kg/day, ip for consecutive 4 days (4, 24, 48 and 72 hrs post infection) and measured up to 20 days after infection relative to untreated control; format: functional; design: scale not given: the % may be the effect or the level left
Plasmodium berghei [7] = test system: Plasmodium berghei
Description: Antiplasmodial activity against GFP-transfected Plasmodium berghei ANKA infected in NMRI mouse assessed as mean survival days at 50 mg/kg/day, ip for consecutive 4 days (4, 24, 48 and 72 hrs post infection) and measured up to 20 days after infection (Rvb = 6 to 7 days)

pIC50 (Plasmodium falciparum [1])	Papp [5]	SMILES	selectivity ratio [2]	pIC50 (L6; read-out: IC50)	pIC50 (Plasmodium falciparum [3])	selectivity ratio [4]	pIC50 (L6)	Activity (Plasmodium berghei [6])	MSD (Plasmodium berghei [7])
5.25		CC(NC(=O)c1cc(-c2ccc(CN3CCOCC3)cc2)nc2ccc(F)cc12)c1ccccc1 (racemic)	12.9	4.14					
		C[C@@H]1CC[C@H]2[C@@H](C)C(=O)O[C@@H]3O[C@@]4(C)CC[C@@H]1[C@]32OO4 [ARTEMISININ]			8.19	70400			
5.34		O=C(NCCc1ccccc1)c1cc(-c2ccc(CN3CCOCC3)cc2)nc2ccc(F)cc12	3.57	4.78					
5.71	9.26 ×10⁻⁶ cm/s	CCCN1CCN(Cc2cc(-c3ccc(CN4CCOCC4)cc3)nc3ccc(F)cc23)CC1	7.67	4.83					
5.06		O=C(NCC(F)(F)F)c1cc(-c2ccc(CN3CCOCC3)cc2)nc2ccc(F)cc12	11.3	4.00					
		COc1cc([C@@H]2c3cc4c(cc3[C@H](O)[C@H]3COC(=O)[C@H]23)OCO4)cc(OC)c1OC [PODOFILOX]					7.92		
6.21		CN1CCN(CCC(=O)Nc2cc(-c3ccc(CN4CCOCC4)cc3)nc3ccc(F)cc23)CC1	51.8	4.50					
4.83	9.35 ×10⁻⁶ cm/s	O=C(NCCc1ccccn1)c1cc(-c2ccc(CN3CCOCC3)cc2)nc2ccc(F)cc12	3.6	4.27					
5.00	7.15 ×10⁻⁶ cm/s	CCC(=O)N1CCN(Cc2cc(-c3ccc(CN4CCOCC4)cc3)nc3ccc(F)cc23)CC1	3.83	4.41					
		CCN(CC)CCCC(C)Nc1ccnc2cc(Cl)ccc12 (stereo not given) [CHLOROQUINE]						99.6%	20 days
5.15	0.19 ×10⁻⁶ cm/s	CCOC(=O)N1CCC(NC(=O)c2cc(-c3ccc(CN4CCOCC4)cc3)nc3ccc(F)cc23)CC1	12.7	4.04					
5.51	2.09 ×10⁻⁶ cm/s	CC(C)(C)N1CCN(CCNC(=O)c2cc(-c3ccc(CN4CCOCC4)cc3)nc3ccc(F)cc23)CC1	32.1	4.00					
5.13	5.53 ×10⁻⁶ cm/s	CCC(=O)N1CCN(C(=O)c2cc(-c3ccc(CN4CCOCC4)cc3)nc3ccc(F)cc23)CC1	12.6	4.03					
5.22		O=C(NCc1ccccc1)c1cc(-c2ccc(CN3CCOCC3)cc2)nc2ccc(F)cc12	17.2	3.99					
4.42		O=C(c1cc(-c2ccc(CN3CCOCC3)cc2)nc2ccc(F)cc12)N1CCCCC1	2.69	3.99					
4.19	3.67 ×10⁻⁶ cm/s	O=C(c1cc(-c2ccc(CN3CCOCC3)cc2)nc2ccc(F)cc12)N1CCC(O)CC1	1.57	4.00					
6.00		O=C(NC1CCNCC1)c1cc(-c2ccc(CN3CCOCC3)cc2)nc2ccc(F)cc12	69.9	4.16					

SMILES	pIC50 (Plasmodium falciparum [1])	Papp [5]	selectivity ratio [2]	pIC50 (L6; read-out: IC50)	pIC50 (Plasmodium falciparum [3])	selectivity ratio [4]	pIC50 (L6)	Activity (Plasmodium berghei [6])	MSD (Plasmodium berghei [7])
CC(C)(C)OC(=O)N1CCN(CCC(=O)Nc2cc(-c3ccc(CN4CCOCC4)cc3)nc3ccc(F)cc23)CC1	6.59		216	4.25	6.52	187			
CC(C)(C)OC(=O)N1CCN(CC(=O)Nc2cc(-c3ccc(CN4CCOCC4)cc3)nc3ccc(F)cc23)CC1	5.12		11.8	4.05	5.46	25.5			
CC(C)(C)C(=O)N1CCN(CC(=O)Nc2cc(-c3ccc(CN4CCOCC4)cc3)nc3ccc(F)cc23)CC1	5.02		7.82	4.13	5.31	15.2			
O=C(CCN1CCCC1)Nc1cc(-c2ccc(CN3CCOCC3)cc2)nc2ccc(F)cc12	8.40	10.1 ×10⁻⁶ cm/s	30800	3.91	7.96	11200		33.9%	4 days
Fc1ccc2nc(-c3ccc(CN4CCOCC4)cc3)cc(CNCCN3CCN(c4ccccc4)CC3)c2c1	7.70	2.39 ×10⁻⁶ cm/s	732	4.83	7.43	396			
O=C(CN1CCCC1)Nc1cc(-c2ccc(CN3CCOCC3)cc2)nc2ccc(F)cc12	5.98		54.6	4.25	6.09	69.3			
CC(C)(C)OC(=O)N1CCN(CCNCc2cc(-c3ccc(CN4CCOCC4)cc3)nc3ccc(F)cc23)CC1	7.74	4.57 ×10⁻⁶ cm/s	1100	4.70	7.39	484			
CC(C)(C)C(=O)N1CCN(CCNC(=O)c2cc(-c3ccc(CN4CCOCC4)cc3)nc3ccc(F)cc23)CC1	8.30	6.11 ×10⁻⁶ cm/s	16000	4.10				25.2%	4 days
Fc1ccc2nc(-c3ccc(CN4CCOCC4)cc3)cc(CNCCN3CCCC3)c2c1	8.96	4.55 ×10⁻⁶ cm/s	48900	4.27	8.96	48900		99.4%	10 days
CN1CCN(Cc2ccc(-c3cc(NC(=O)CCN4CCCC4)c4cc(F)ccc4n3)cc2)CC1	8.70		7780	4.81	8.54	5370		99.6%	16 days
CC(C)(C)C(=O)N1CCN(CCC(=O)Nc2cc(-c3ccc(CN4CCOCC4)cc3)nc3ccc(F)cc23)CC1	6.28		83.9	4.35	6.44	124			
Nc1cc(-c2ccc(CN3CCOCC3)cc2)nc2ccc(F)cc12	6.64		93.3	4.67	6.41	55			
